Assay results: patent US20160186187A1, “REGULATABLE GENE EXPRESSION” (BIOSYNTIA APS, priority 2013, published 2016)
Entries after “also recorded” stand apart in the source; their conditions may differ.

Legend:
[1] = tested on: EcpGEBO5.1; assay: Growth response of EcpGEBO5.1 for xanthine alkaloids (plate selection assay); assay type: cell-based, Escherichia coli; conditions: for Growth, Selection: ampicillin 50 μg/mL, spectinomycin 80 μg/mL, chloramphenicol 30 μg/mL; for Growth, No Selection: plates without spectinomycin and chloramphenicol
Protocol: The growth response of EcpGEBO5.1 for 4 different xanthine alkaloids was determined empirically using a selection assay with varying concentrations xanthine-based compounds: theophylline, xanthine, theobromine and caffeine.
Procedure: 300-400 colony forming units were plated on plates containing ampicillin (50 μg/mL), spectinomycin (80 μg/mL), chloramphenicol (30 μg/mL) and the indicated concentration of xanthine-based compound—see Table 2: Dissociation constants (KJ for the xanthines with the aptamer region (mCTC8-4 aptamer) previously determined (Jenison et al., 1994). No selection means plates without spectinomycin and chloramphenicol. (+) means growth was observed. (−) means no growth was observed. (˜) means reduced growth was observed.

[2] = biological target: mCTC8-4 aptamer; conditions: previously determined (Jenison et al., 1994); cited from earlier work
[3] = tested on: EcpGEBO5.1 + pZE21; assay: Growth response to xanthine in M9 minimal medium, control strain; assay type: cell-based, Escherichia coli; conditions: for OD600 of EcpGEBO5.1 + pZE21: selection (chloramphenicol 30 μg/ml, spectinomycin 80 μg/ml), 16 h
Protocol: (§1) In order to test the hypothesis, growth experiments with and without xanthine was performed. First, in order eliminate the putative contribution of any background mutation of the genome or of the pGEBO5.1 assay plasmid the library plasmid encoding the putative xanthine permease (pZE21_1H) from the AB95D01 soil metagenomic library was extracted and retransformed in strain EcpGEBO5.1. Instead of testing the strain in LB-medium, xanthine-free M9 minimal medium was used to test the effect of defined xanthine concentrations. Strain EcpGEBO5.1 transformed with the empty cloning vector pZE21 (EcpGEBO5.1+pZE21) was used as a control. Both strains were inoculated in 3 ml M9 minimal medium supplemented with kanamycin 50 μg/ml and ampicillin 50 μg/ml and grown overnight. The next day a new 3 ml culture was prepared under same conditions and inoculated by transferring 30 μl from the initial culture. At exponential phase (when the optical density at 600 nm (0D600) had reached ˜0.5) the culture was used to inoculate 200 μl M9 minimal selective media in a microtiterplate with varying concentrations of xanthine (Table below). Inoculums were diluted such that the initial OD600 of each culture was exactly 0.01. The microtiter plate was incubated at 37° C. in an ELx808 Absorbance Microtiterplate Reader from Biotek with shaking at 200 rpm. OD600 was measured after 16 h and the average and standard deviation was calculated from three biological replicates of each xanthine concentration. When grown in concentrations of xanthine ranging from 0 mM to 1 mM but no chloramphenicol or spectinomycin both strains were unaffected by the presence of xanthine. When applying selection (chloramphenicol 30 μg/ml and spectinomycin 80 μg/ml), growth was observed only for the strain harbouring the xanthine permease containing plasmid (pZE21_1H) and only when xanthine was added (Table 3). The experiment confirms the prediction that the DNA insert is encoding a xanthine permease protein, and that the increased xanthine uptake enables growth under selective conditions.

[4] = tested on: EcpGEBO5.1 + pZE21_1H; assay: Growth response to xanthine in M9 minimal medium, xanthine permease strain; assay type: cell-based, Escherichia coli; conditions: for OD600 of EcpGEBO5.1 + pZE21_1H: selection (chloramphenicol 30 μg/ml, spectinomycin 80 μg/ml), 16 h
Protocol: as §1

[5] = tested on: EcpGEBO5.1; assay: Spontaneous resistance of EcpGEBO5.1 in single and dual antibiotic selection (plating); assay type: cell-based, Escherichia coli; conditions: for Growth on antibiotic plate: LB agar, chloramphenicol 30 μg/mL and/or spectinomycin 80 μg/mL; for Colonies on single selection plates (in words): three plates each, 24 h of incubation
Protocol: pGEBO5.1 was transformed into E. coli Dh10B cells (forming EcpGEBO5.1) using standard methods known to the skilled person. To test whether the double selection system solved the problem of spontaneous resistance, plating of up to 1.3×10^8 EcpGEBO5.1 cells was performed in 10 replicates on LB agar media containing spectinomycin (80 μg/mL) and chloramphenicol (30 μg/mL) (‘dual selection’). As a control, plating on plates containing only chloramphenicol (30 μg/mL) or spectinomycin (80 μg/mL) (‘single selection’) was each performed in triplicate (See Table 1). Each plate was incubated for 72 hours. Of the 10 plates with dual selection no colonies were observed within the first 48 hours of incubation. […] Therefore, it appears that the probability of a single mutation to confer spontaneous resistance to one antibiotic is significant whereas the probability of a simultaneous double mutation to confer spontaneous resistance to both antibiotics is effectively nil.

[6] = xanthine 0 mM to 1 mM, no chloramphenicol or spectinomycin
[7] = 1.3 × 10^6 CFU plated (1 ul), 24 h growth
[8] = 1.3 × 10^6 CFU plated (1 ul), 48 h growth
[9] = 1.3 × 10^6 CFU plated (1 ul), 72 h growth
[10] = 1.3 × 10^7 CFU plated (10 ul), 24 h growth
[11] = 1.3 × 10^7 CFU plated (10 ul), 48 h growth
[12] = 1.3 × 10^7 CFU plated (10 ul), 72 h growth

Which “Growth, Selection” value ([1]; 3 mM xanthine compound) does the source give for `Cn1c(=O)c2c(ncn2C)n(C)c1=O` [Caffeine, caffeine] here?
Its value is “−”.

And the “Growth, No Selection” value ([1]; 3 mM xanthine compound)?
The value was “+”.

What about the “Growth, Selection” value ([1]; 7 mM xanthine compound) of the same compound?
Its value is “−”.

And the Kd [2]?
Its Kd is 3500 ± 1500 µM.

What does the source list for `Cn1cnc2c1c(=O)[nH]c(=O)n2C` [Theobromine, theobromine]?
Growth, Selection ([1]; 1 mM xanthine compound): −; Growth, No Selection ([1]; 1 mM xanthine compound): +; Kd [2]: > 500 µM

With `Cn1c(=O)c2[nH]cnc2n(C)c1=O` [Theophylline, theophylline] as the compound, how does the “Growth, No Selection” value ([1]; 0.1 mM xanthine compound) read?
Its value is “+”.

What about the “Growth, Selection” value ([1]; 2 mM xanthine compound) of the same compound?
Its value is “+”.

What about the “Growth, No Selection” value ([1]; 2 mM xanthine compound) of the same compound?
Its value is “+”.

What about the Kd [2] of the same compound?
The Kd was 0.32 ± 0.13 µM.

What does the source list for `O=c1[nH]c(=O)c2[nH]cnc2[nH]1` [Xanthine, xanthine]?
Growth, Selection ([1]; 1 mM xanthine compound): −; Growth, No Selection ([1]; 1 mM xanthine compound): +; Growth of EcpGEBO5.1 under selective conditions (in words) ([1]; 1 mM xanthine in the growth medium): lack of growth; also recorded: did not enable growth; Effect of xanthine on growth without selection [3, 6]: unaffected; OD600 of EcpGEBO5.1 + pZE21 ([3]; xanthine 1.0 μM): 0.02 ± 0.00; OD600 of EcpGEBO5.1 + pZE21 ([3]; xanthine 1.5 μM): 0.02 ± 0.00; OD600 of EcpGEBO5.1 + pZE21 ([3]; xanthine 2.0 μM): 0.02 ± 0.00; OD600 of EcpGEBO5.1 + pZE21 ([3]; xanthine 2.5 μM): 0.03 ± 0.00; OD600 of EcpGEBO5.1 + pZE21 ([3]; xanthine 4.5 μM): 0.03 ± 0.00; OD600 of EcpGEBO5.1 + pZE21 ([3]; xanthine 12.5 μM): 0.03 ± 0.01; Effect of xanthine on growth without selection [4, 6]: unaffected; OD600 of EcpGEBO5.1 + pZE21_1H ([4]; xanthine 1.0 μM): 0.17 ± 0.01; OD600 of EcpGEBO5.1 + pZE21_1H ([4]; xanthine 1.5 μM): 0.29 ± 0.01; OD600 of EcpGEBO5.1 + pZE21_1H ([4]; xanthine 2.0 μM): 0.37 ± 0.00; OD600 of EcpGEBO5.1 + pZE21_1H ([4]; xanthine 2.5 μM): 0.42 ± 0.00; OD600 of EcpGEBO5.1 + pZE21_1H ([4]; xanthine 4.5 μM): 0.50 ± 0.01; OD600 of EcpGEBO5.1 + pZE21_1H ([4]; xanthine 12.5 μM): 0.51 ± 0.01; Kd [2]: 8.5 ± 0.4 µM

Which “Growth on antibiotic plate” value [5, 7] does the source give for `O=C(N[C@H](CO)[C@H](O)c1ccc([N+](=O)[O-])cc1)C(Cl)Cl` [chloramphenicol] here?
The value was “−”.

What about the “Growth on antibiotic plate” value [5, 8] of the same compound?
Its value is “+ (‘+’ single colonies (1-1000))”.

And the “Growth on antibiotic plate” value [5, 9]?
The value was “+ (‘+’ single colonies (1-1000))”.

What about the “Growth on antibiotic plate” value [5, 10] of the same compound?
Its value is “+ (‘+’ single colonies (1-1000))”.

And the “Growth on antibiotic plate” value [5, 11]?
Its value is “++”.

What about the “Growth on antibiotic plate” value [5, 12] of the same compound?
Its value is “++”.

What about the “Colonies on single selection plates (in words)” value [5] of the same compound?
The value was “numerous colonies”.

What does the source list for `CN[C@@H]1[C@H](O)[C@H](NC)[C@H]2O[C@@]3(O)C(=O)C[C@@H](C)O[C@H]3O[C@@H]2[C@H]1O` [spectinomycin]?
Growth on antibiotic plate [5, 7]: + (‘+’ single colonies (1-1000)); Growth on antibiotic plate [5, 8]: ++; Growth on antibiotic plate [5, 9]: ++; Growth on antibiotic plate [5, 10]: + (‘+’ single colonies (1-1000)); Growth on antibiotic plate [5, 11]: ++; Growth on antibiotic plate [5, 12]: ++; Colonies on single selection plates (in words) [5]: numerous colonies
